Patent publication US20260083669A1, “AQUEOUS GEL COMPOSITION” (Acousia Therapeutics GmbH, priority 2022, published 2026)
Values joined by “and” are separate entries in the source; they are usually repeats but may differ in a detail not shown here. Equal values may be shown once. Read-outs that look alike come from different tables or passages of the source.

Assays:
Solubility in water = type: physicochemical; details: 24 °C, room temperature (22-26° C.)
[1] = Pharmacokinetic study after unilateral transtympanic administration (plasma, inner ear, perilymph, brain); type: in vivo, female Sprague Dawley rats; details: rat; for concentration at 14 days: 14 days after administration; for ACOU085 plasma concentration / ACOU085 brain concentration: 6% thermo-reversible formulation 1.2 mg/animal unilateral transtympanic
Experimental: Eighteen female Sprague Dawley rats entered a pharmacokinetic study, to determine the distribution of a 6% thermo-reversible ACOU085 formulation at a dose of 1.2 mg/animal after unilateral transtympanic administration in peripheral plasma, inner ear, perilymph, brain and CSF.
4, 24, 48, 96, 168 and 336 h after dosing n=3 rats out of every group were euthanized with carbon dioxide, peripheral and final blood samples and brain were taken and inner ears were dissected to analyze ACOU085 concentrations. Body weight was assessed on the day 1-4, on day 7 and day 14. Animals were checked for any clinical signs associated with toxicity of the test substance.

[2] = Viscosity test: temperature-induced rise in viscosity; type: physicochemical; details: 15% poloxamer 407 gel with 2% API vs without
Experimental: The viscosity normally is measured with a viscometer, in particular a rheometer. A rheometer usually is a laboratory device measuring flow characteristics of a liquid, suspension or slurry in response to applied forces. A common device type is a so called shear rheometer, in which a shear stress is applied to the corresponding material. Devices which can be used to measure the viscosity of the aqueous gel compositions according to the invention are rheometers from Brookfield (AMETEK Brookfield). […]
Note: Maximal Viscosity is Identical for all Formulations (Due to the Test Method)

[3] = 6% thermo-reversible formulation 1.2 mg/animal transtympanic

| SMILES | solubility (Solubility in water) [µg/mL] | concentration at 336 h ([1]; female, Sprague Dawley, other: transtympanic, perilymph, 6% formulation 1.2 mg/animal unilateral transtympanic, Left side, 336 h, animals 1-3, read-out: Uptake of ACOU085 into the perilymph: ACOU085 inner ear concentration) [nM] | concentration at 14 days ([1]; female, Sprague Dawley, brain, other: transtympanic, 1.2 mg/animal, read-out: brain concentration (average)) [nM] | concentration at 4 h ([1]; female, Sprague Dawley, inner ear, left side, other: transtympanic, 1.2 mg/animal, 6% formulation 1.2 mg/animal unilateral transtympanic, Left side, 4 h, animals 1-3, read-out: ACOU085 inner ear concentration) [nM] | concentration at 14 days ([1]; female, Sprague Dawley, plasma, other: transtympanic, 1.2 mg/animal, read-out: plasma concentration (average)) [nM] | concentration at 7 days ([1]; female, Sprague Dawley, plasma, other: transtympanic, 1.2 mg/animal, after 7 days) [nM] | ACOU085 inner ear concentration ([1]; 6% formulation 1.2 mg/animal unilateral transtympanic, Left side, 4 h, animals 1-3) | maximal average concentration in brain [1, 3] [nmol/L] | maximal average concentration in plasma [1, 3] [nmol/L] | ACOU085 plasma concentration ([1]; 4 h (printed 4 11), animals 1-3) | ACOU085 brain concentration ([1]; 48 h, animals 1-3) | ACOU085 plasma concentration ([1]; 48 h, animals 1-3) | ACOU085 brain concentration ([1]; 96 h, animals 1-3) | ACOU085 plasma concentration ([1]; 96 h, animals 1-3) | time of peak brain concentration ([1]; after injection) [h] | uptake into the brain and into the plasma ([1]; compared with inner ear tissue and perilymph) | Uptake of ACOU085 into the perilymph: ACOU085 inner ear concentration ([1]; perilymph, 6% formulation 1.2 mg/animal unilateral transtympanic, Left side, 336 h, animals 1-3) | effect of API on the viscosity-temperature relation of the formulation [2] |
| --- | --- | --- | --- | --- | --- | --- | --- | --- | --- | --- | --- | --- | --- | --- | --- | --- | --- | --- |
| O=C(NCc1cccc(S(F)(F)(F)(F)F)c1)[C@H]1C[C@@H]2CC[C@H]1C2 [ACOU085, (1S,2S,4R)—N-(3-(pentafluorosulfanyl)benzyl) bicyclo[2.2.1]heptane-2-carboxamide] | < 1000 | 4 | 8 | 55 | 4 | 26 | 82 nmol/L and 93 nmol/L | 82 | 45 | 9 nnmol/L and 6 nnmol/L and 12 nnmol/L | 38 nnmol/L and 53 nnmol/L and 76 nnmol/L | 12 nnmol/L and 18 nnmol/L and 16 nnmol/L | 94 nnmol/L and 52 nnmol/L and 68 nnmol/L | 48 nnmol/L and 26 nnmol/L and 33 nnmol/L | 96 | low in comparison to the inner ear tissue and perilymph | 3 nmol/L and 2 nmol/L | no effect |
| O=C(NCc1cccc(S(F)(F)(F)(F)F)c1)[C@H]1C[C@@H]2CC[C@H]1C2 (racemic) [Compound A, (1SR,2SR,4RS)—N-(3-(pentafluoro-λ6-sulfanyl)benzyl) bicyclo[2.2.1]heptane-2-carboxamide] | < 1000 |  |  |  |  |  |  |  |  |  |  |  |  |  |  |  |  |  |
